Consider one sequence from article PMC5384220 (Nature Communications, 2017).

The target of one test is T1, His-KDM4A1-359-Bio (Homo sapiens, UniProt O75164).
T1 construct: KDM4A protein (residues 1-359) was cloned into the pNIC-Bio3 plasmid, which incorporates a C-terminal AviTag; made in house; host or cells: E. coli BL21(DE3)Rosetta co-transfected with pCDF-BirA
T1 sequence (O75164 1-359): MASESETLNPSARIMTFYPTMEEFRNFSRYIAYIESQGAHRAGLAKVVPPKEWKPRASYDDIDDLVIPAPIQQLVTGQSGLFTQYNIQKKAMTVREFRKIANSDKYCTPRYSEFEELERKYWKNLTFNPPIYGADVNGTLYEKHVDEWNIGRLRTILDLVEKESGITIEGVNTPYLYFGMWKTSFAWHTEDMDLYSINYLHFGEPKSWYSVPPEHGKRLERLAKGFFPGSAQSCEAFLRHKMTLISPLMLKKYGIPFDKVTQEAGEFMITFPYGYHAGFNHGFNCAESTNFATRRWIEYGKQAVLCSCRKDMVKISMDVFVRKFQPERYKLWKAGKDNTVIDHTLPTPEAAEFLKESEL
Kind of test: Biolayer interferometry binding to KDM4A. (In general: BLI is a label-free optical method that tracks binding on a fibre tip over time.)

The target in another test is T2, His-KDM4A1-359 (Homo sapiens, UniProt O75164).
T2 construct: using 0.5 μM His-KDM4A1–359; made in house
T2 sequence (O75164 1-359): T1 sequence (O75164 1-359)
Kind of test: Formaldehyde dehydrogenase coupled KDM assay (mode of inhibition). It counts as biochemical.

Test [1] addresses T3, full-length KDM4A (residues 1-1,064) (Homo sapiens, UniProt O75164).
T3 construct: full-length KDM4A (residues 1–1,064) purified from HEK293T cells; made in house; host or cells: HEK293T (transient transfection, anti-FLAG M2 immunoprecipitation)
T3 sequence (O75164 1-1064): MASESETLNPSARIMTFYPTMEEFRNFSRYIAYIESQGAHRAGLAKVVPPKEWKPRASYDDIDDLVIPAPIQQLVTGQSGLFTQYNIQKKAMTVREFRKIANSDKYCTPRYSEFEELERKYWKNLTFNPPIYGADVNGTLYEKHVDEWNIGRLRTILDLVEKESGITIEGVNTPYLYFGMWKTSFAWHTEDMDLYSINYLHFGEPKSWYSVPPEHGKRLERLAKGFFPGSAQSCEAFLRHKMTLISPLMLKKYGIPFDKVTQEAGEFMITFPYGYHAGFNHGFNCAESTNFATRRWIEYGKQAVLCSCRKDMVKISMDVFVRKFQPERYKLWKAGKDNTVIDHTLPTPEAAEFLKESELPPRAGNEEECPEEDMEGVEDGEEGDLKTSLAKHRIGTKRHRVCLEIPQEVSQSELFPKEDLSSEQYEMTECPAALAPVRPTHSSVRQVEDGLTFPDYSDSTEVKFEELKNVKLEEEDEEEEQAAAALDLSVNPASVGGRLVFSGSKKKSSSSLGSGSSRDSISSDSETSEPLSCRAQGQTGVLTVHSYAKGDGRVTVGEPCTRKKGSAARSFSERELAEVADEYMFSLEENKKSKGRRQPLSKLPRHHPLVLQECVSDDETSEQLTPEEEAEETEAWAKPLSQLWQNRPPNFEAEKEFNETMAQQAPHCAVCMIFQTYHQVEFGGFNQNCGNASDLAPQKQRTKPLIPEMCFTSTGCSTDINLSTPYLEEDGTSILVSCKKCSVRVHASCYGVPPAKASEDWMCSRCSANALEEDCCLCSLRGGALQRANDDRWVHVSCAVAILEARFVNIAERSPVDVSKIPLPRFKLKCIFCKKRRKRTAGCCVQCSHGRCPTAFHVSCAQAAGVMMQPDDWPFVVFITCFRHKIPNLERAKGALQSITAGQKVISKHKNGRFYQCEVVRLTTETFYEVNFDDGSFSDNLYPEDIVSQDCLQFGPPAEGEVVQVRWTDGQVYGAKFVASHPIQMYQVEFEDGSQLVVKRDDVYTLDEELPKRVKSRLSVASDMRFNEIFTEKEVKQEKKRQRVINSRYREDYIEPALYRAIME
The test can be described thus: MALDI-TOF MS demethylation assay with full-length KDM4A. It is filed as biochemical. The conditions noted are these: CP2 10 µM; H3K9me3 and H3K36me3 peptides 10 µM; 1 h 37°C. An excerpt: N-terminally Hexa-His-tagged KDM4A (His-KDM4A1–359) was produced and purified as described. The KDM4A gene encoding for KDM4A protein (residues 1-359) was cloned into the pNIC-Bio3 plasmid, which incorporates a C-terminal AviTag and expressed with biotin supplement in BL21(DE3)Rosetta co-transfected with pCDF-BirA[32]. His-KDM4A with biotin (His-KDM4A-Bio) was purified using nickel affinity chromatography. Complete (>95%) biotinylation of KDM4A was confirmed using electrospray ionization–MS (Waters Micromass LCT Premier). […] The full-length FLAG-tagged KDM4A1–1,064 (ref. [15]) was produced in HEK293T cells. HEK293T cells were grown to 80% confluency in DMEM medium (Sigma) supplemented with Glutamax (Life Technologies), 10% fetal bovine serum (FBS, Sigma). FLAG-tagged KDM4A was transfected using polyethyleneimine. Cells were harvested after 48 h, washed with PBS (Sigma) and lysed (45 min, 4 °C) in 50 mM HEPES (pH 7.5), 150 mM NaCl buffer containing protease inhibitor cocktail (Sigma), 10 μM DNase (Sigma) and 0.1% NP40 (Roche). FLAG-tagged KDM4A was purified by immunoprecipitation using anti-FLAG M2 magnetic beads (Sigma) and washed in 50 mM HEPES (pH 7.5) 150 mM NaCl. The final wash was performed in 50 mM HEPES (pH 7.5) and the resin was used as an enzyme source for the full-length KDM4A.
KDM4A in vitro. […]
(pH 7.5) at 37°C for 1 h. The assay products were analysed by MALDI-TOF MS. […]

Procedure for His-KDM4A1-359-Bio: The formaldehyde dehydrogenase coupled KDM assay was used to determine the mode of inhibition[34], using 0.5 μM His-KDM4A1–359. Prism 5.0 (GraphPad) was used to fit in mix-mode inhibition, to determine the kinetic parameters. Binding constants for CPs and H3(1–15)K9me3 were measured using biolayer interferometry (OctetRed 384, ForteBio) in buffer (50 mM HEPES (pH 7.5), 150 mM NaCl, 10 μM ammonium iron(II) sulphate). His-KDM4A1–359-Bio (70 nM) was immobilized onto super streptavidin biosensor and subjected to different peptide concentrations in buffer. Data analysis was performed using ForteBio Data Aalysis (v6.4).
KDM4A1-359 was immobilized and analysed for binding to peptides at different concentrations.
The concentration of KDM4A in the assay mixture was 0.5 µM.

As to DYVYNTRSGWRWYTC [CP2], on His-KDM4A1-359-Bio, the “KDM4A Binding kdiss” value was found to be 0.00407 s⁻¹ and the “KDM4A Binding kon” value is 137000 M⁻¹ s⁻¹. Besides, the “α (mixed-mode inhibition parameter)” value on His-KDM4A1-359 (FDH assay, 0.5 µM KDM4A) stood at 4.73. For the same sequence, at His-KDM4A1-359 (kinetic analyses), the “Mode of inhibition with respect to H3K9me3” value is listed as “competitive inhibitor”. The “Inhibition of demethylation by full-length KDM4A” value in test [1] is “inhibits”.
